The test system of assay [1] is rat soleus muscle. The class given is cell-based. On the procedure:
Male Harlan Sprague Dawley rats of approximately 200 g mass were used in order to maintain soleus muscle mass less than 40 mg. The animals were fasted for 4 hours prior to sacrifice by decapitation. The skin was stripped from the lower limb which was then pinned out on cork board. The tendo achilles was cut just above os […]. gastrocnemius reflected out from the posterior aspect of the tibia. M. soleus, a small […], 0.55 mm thick flat muscle on the bone surface of m. gastrocnemius was then stripped clear and the perimysium cleaned off using fine scissors and forceps. M. soleus was then split into equal parts using a blade passed antero-posteriorly through the belly of the muscle to obtain a total of 4 muscle strips from each animal. After dissecting the muscle from the animal, it was kept for a short period in physiological saline. The muscle was not held under tension, as reported in other methodologies since in our hands this had no demonstrable effect on the insulin-sensitivity of radioglucose incorporation into glycogen. Muscles were added to 50 mL Erlenmeyer flasks containing 10 mL of a pregassed Krebs-Ringer bicarbonate buffer containing (mM) NaCl 118.5; KCl 5.94; CaCl2 2.54; MgSO4 1.19; KH2 PO4 1.19; NaHCO3 25; glucose 5.5; and recombinant human insulin (Humulin-R, Eli Lilly, Ind.) and either synthetic rat (Bachem, Torrance, Calif. Lot# ZG485) or synthetic human amylin (Bachem, Torrance, Calif. Lot# ZH144) as detailed below. Methods used to determine the nature and purity of rat and human amylin included quantitative amino acid analysis, gas phase amino acid sequencing, reverse phase HPLC and fast-atom-bombardment mass spectrometry. […] Incorporation of mercury into rat amylin may be a feature of many commercially available batches that have already been used in published studies. Since the peptide was bioactive, its action in muscle was expected to at least qualitatively mimic that of true rat amylin. The mercuric method of cyclization was not used in the synthesis of human amylin, which is found by electrospray ionization mass spectrometry and atomic absorption spectroscopy to be mercury-free. Muscles were assigned to different flasks so that the four muscle pieces from each animal were evenly distributed among the different assay conditions. The incubation media were gassed by gently blowing carbogen (95% O2, 5% CO2) over the surface while it was continuously agitated at 37° C. in an oscillating water bath. pH of gassed media at 37° C. was verified as being between 7.1 and 7.4. After a half-hour preincubation, 0.5 μCi of [U-^14 C]-glucose was added to each flask for a further 60 minutes. Each muscle piece was then rapidly removed, trimmed of tendons, blotted, frozen in liquid N2, weighed and then stored at […] for subsequent determination of ^14 C-glycogen. The incubation medium was also frozen for subsequent analysis. The concentration of human amylin present in the medium at the end of the incubation was determined by radioimmunoassay in surfactant-containing buffer. For both human and rat amylin, the actual mass added to the incubation medium was determined by quantitative amino-acid analysis. Each frozen muscle specimen was placed in a vial with 1 mL 60% potassium hydroxide (wt/vol) and digested at 70° C. for 45 minutes under intermittent vigorous agitation. Dissolved glycogen was precipitated onto the walls of the vial by addition of 3 mL absolute ethanol and overnight cooling at -20° C. After centrifugation for 30 minutes at 2000 x-- g, the supernatant was gently aspirated, the glycogen was again washed with ethanol and centrifuged, the ethanol aspirated and the precipitate dried under vacuum. It was important to evaporate all ethanol to avoid quenching during scintillation counting. The remaining glycogen was redissolved in 1 mL water and 4 mL scintillation fluid and counted for ^14 C. […]

Assay [2] has as its system streptozotocin-diabetic rats. Kind of assay: Liver glycogen in insulin-treated streptozotocin diabetic rats, daily s.c. amylin replacement. The class given is in vivo, rat. On the procedure:
There were 68 male Harlan Sprague Dawley rats (mass 301±3 g) in 8 treatment groups. Animals were housed at 22.7±0.8° C. in a 12:12 hour light:dark cycle (experiments being performed during the light cycle) and fed and watered ad libitum (Diet LM-485, Teklad, Madison, Wis.). The rats were sacrificed for harvesting of livers 4 to 5 hours into the light cycle.
Animals were injected with streptozotocin (Sigma Chemical Company, St Louis, Mo.: Sigma 50130) dissolved in water in a dose of 65 mg/kg into the lateral tail vein. […] Maintaining diabetic rats in this metabolic state optimizes survival. Following one week of established diabetes, animals received once daily s.c. injections of amylin vehicle (water for injection) for 5 days given at the time of the insulin injection.
These animals were treated identically to those in group 1 except that the daily subcutaneous injection contained 3 μg (n=5); 10 μg (n=12); 30 μg (n=5); 100 μg (n=5) or 300 μg (n=5) of rat amylin (Bachem lot# WG485^2/). The bioactivity of the peptide used in these experiments was first verified by bioassay, using inhibition of insulin-stimulated radioglucose incorporation into glycogen in the isolated stripped rat soleus muscle. […] The insulin dose in each of the groups of diabetic animals averaged 1.67 U/animal/day. There were no other observable differences in the required management of the different groups.
These animals were derived from the same stock and housed under the same conditions for the same time as those in groups 1-6, but were given no injections. 24 hours after the fifth daily injection of amylin or water (or an equivalent time after admission to the vivarium in the case of group 7 rats), the non-fasted rats were killed by decapitation and the livers immediately removed and frozen in liquid N2, weighed and stored for subsequent determination of glycogen concentration.
Whole livers were powdered while frozen. Approximately 200 mg of powder was further homogenized in 1.0 mL of 0.6M perchloric acid to denature enzymes. 200 μL of the homogenate was neutralized with 0.5 volumes of 1.0M KHCO3 in either of two acetate buffer solutions, one containing 2.0 mL of 200 mM acetate (pH4.8), the other containing the same but with 18.5 U/mL of amyloglucosidase (EC5 3.2.1.3, from Aspergillus nicer, Sigma A3423, Sigma Chemical Company, St Louis, Mo.) added. Following at least 20 minutes incubation at 23° C., the supernatants were assayed for glucose in an analyzer using D-glucose oxidase immobilized enzyme chemistry (Analyzer model 2300-STAT, YSI, Yellow Springs, Ohio). Purified rabbit liver glycogen (Sigma G8876) used as a standard indicated 98±4% recovery of dissolved glycogen and linearity within the range of observed liver glycogen concentrations (r=0.9994). All reagents were of analytical grade or better.
Statistical comparisons were by Student's t-test routines contained in the SYSTAT system (Systat, Evanston, Ill.). All results are reported as means ± standard error of the mean.

Assay [3] relates to liver glucose output. Conditions: rats; Molina et al. 1990, Koopmans et al. 1990; cited from earlier work.

SMILES strings stand for the structures. Entries after “also recorded” stand apart in the source; their conditions may differ. Read-outs that look alike come from different tables or passages of the source.

Turning to `CC(C)C[C@H](NC(=O)[C@H](CC(N)=O)NC(=O)[C@H](CC(N)=O)NC(=O)[C@H](CO)NC(=O)[C@H](CO)NC(=O)[C@H](CCCNC(=N)N)NC(=O)[C@@H](NC(=O)[C@H](CC(C)C)NC(=O)[C@H](Cc1ccccc1)NC(=O)[C@H](CC(N)=O)NC(=O)[C@H](C)NC(=O)[C@H](CC(C)C)NC(=O)[C@H](CCCNC(=N)N)NC(=O)[C@H](CCC(N)=O)NC(=O)[C@@H](NC(=O)[C@H](C)NC(=O)[C@@H]1CSSC[C@H](NC(=O)[C@@H](N)CCCCN)C(=O)N[C@@H](CC(N)=O)C(=O)N[C@@H]([C@@H](C)O)C(=O)N[C@@H](C)C(=O)N[C@@H]([C@@H](C)O)C(=O)N1)[C@@H](C)O)C(C)C)C(=O)NCC(=O)N1CCC[C@H]1C(=O)N[C@H](C(=O)N[C@@H](CC(C)C)C(=O)N1CCC[C@H]1C(=O)N1CCC[C@H]1C(=O)N[C@H](C(=O)N[C@@H](CC(N)=O)C(=O)N[C@H](C(=O)NCC(=O)N[C@@H](CO)C(=O)N[C@@H](CC(N)=O)C(=O)N[C@H](C(=O)N[C@@H](Cc1ccc(O)cc1)C(N)=O)[C@@H](C)O)C(C)C)[C@@H](C)O)C(C)C` [rat amylin], the EC50 in assay [1] (4 h) was 6.2 nM; in assay [1] ([insulin] 0 nM (nominal), nominal amylin concentrations, read-out: Amylin dose response: EC50, Mean ± log SE (converted)), 12.2 ± 0.94 nM; in assay [1] ([insulin] 0.21 nM (nominal), nominal amylin concentrations, read-out: Amylin dose response: EC50, Mean ± log SE (converted)), 10.3 ± 0.48 nM; in assay [1] ([insulin] 0.71 nM (nominal), nominal amylin concentrations, read-out: Amylin dose response: EC50, Mean ± log SE (converted)), 8.24 ± 0.24 nM; in assay [1] ([insulin] 2.1 nM (nominal), nominal amylin concentrations, read-out: Amylin dose response: EC50, Mean ± log SE (converted)), 10.4 ± 0.16 nM; in assay [1] ([insulin] 7.1 nM (nominal), nominal amylin concentrations, read-out: Amylin dose response: EC50, Mean ± log SE (converted)), 8.69 ± 0.13 nM. Besides, the EC50 in assay [1] ([insulin] 71 nM (nominal), nominal amylin concentrations, read-out: Amylin dose response: EC50, Mean ± log SE (converted)) was 11.93 ± 0.11 nM. The “Amylin dose response: Maximal response, Mean ± SEM” value is reported as 0.85 ± 0.17 μmol/g wet tissue/hr in assay [1] ([insulin] 0 nM (nominal)); 1.26 ± 0.18 μmol/g wet tissue/hr in assay [1] ([insulin] 0.21 nM (nominal)); 2.11 ± 0.18 μmol/g wet tissue/hr in assay [1] ([insulin] 0.71 nM (nominal)); 2.94 ± 0.18 μmol/g wet tissue/hr in assay [1] ([insulin] 2.1 nM (nominal)); 3.56 ± 0.19 μmol/g wet tissue/hr in assay [1] ([insulin] 7.1 nM (nominal)); 4.07 ± 0.18 μmol/g wet tissue/hr in assay [1] ([insulin] 71 nM (nominal)). Besides, in assay [1] (from insulin/amylin dose response matrix), the “mode of action on the insulin response in soleus muscle” value is recorded as “noncompetitive, functional antagonist to insulin”. Besides, in assay [2] (amylin 3 μg/day plus insulin), the “liver glycogen versus insulin alone” value is listed as “did not measurably increase glycogen levels”. For the same compound, the “liver glycogen restoration towards normal” value in assay [2] (amylin 300 μg/day plus insulin) is reported as “did not measurably restore liver glycogen towards normal”. Further, the “liver glycogen concentration versus normal animals” value in assay [2] (amylin 10, 30 and 100 μg per day plus insulin) was “not significantly different from that in normal animals”. The “liver glycogen versus insulin-only therapy” value in assay [2] (amylin 10, 30 and 100 μg/day s.c. for 5 days plus insulin) was “Significant increases over insulin-only therapy; also recorded: dose-dependent increase in liver glycogen concentration above that in rats replaced with insulin alone”. The “restoration of liver glycogen” value in assay [2] (five consecutive daily subcutaneous injections, insulin-treated STZ diabetic rats) is “dose-dependently restored liver glycogen to normal levels”. Besides, in assay [3], the “effect on insulin-mediated suppression of liver glucose output” value is reported as “reverses insulin-mediated suppression of liver glucose output”.

As a reminder, the EC50 is the concentration that produces a half-maximal response.

(Values after patent US5814600A, “Method and composition for treatment of insulin requiring mammals” (Amylin Pharmaceuticals Inc., priority 1994, dated 1998).)
